{"source": "patent US9956187B2", "about": "(priority 2014, dated 2018)", "key": {"[1]": {"biological_target": "T1, Alpha1A (Homo sapiens, UniProt P35348)", "T1 construct": "expressed in transfected cells", "T1 sequence (P35348 whole entry)": "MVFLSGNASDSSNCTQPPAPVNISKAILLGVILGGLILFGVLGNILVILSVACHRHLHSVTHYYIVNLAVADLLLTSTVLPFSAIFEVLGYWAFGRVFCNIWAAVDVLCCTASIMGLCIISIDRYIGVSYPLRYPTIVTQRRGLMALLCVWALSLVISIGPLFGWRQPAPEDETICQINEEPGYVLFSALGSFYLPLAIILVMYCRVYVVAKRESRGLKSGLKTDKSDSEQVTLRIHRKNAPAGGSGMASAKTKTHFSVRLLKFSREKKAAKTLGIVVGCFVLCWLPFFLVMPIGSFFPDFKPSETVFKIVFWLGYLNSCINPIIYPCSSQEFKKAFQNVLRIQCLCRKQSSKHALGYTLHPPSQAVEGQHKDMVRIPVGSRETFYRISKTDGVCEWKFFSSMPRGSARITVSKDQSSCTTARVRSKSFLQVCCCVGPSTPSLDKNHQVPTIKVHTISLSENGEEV", "test": "Primary radioligand binding screen", "description": "(§1) Evidence for interaction was based on the inhibition of the reference ligand-binding signal. […] Briefly, 50 μL aliquots of radioactive ligand (5 nM) were added to wells of a 96-well plate, which contained 25 μL of the reference or test ligands. We employed transfected cell lines expressing mainly human (unless otherwise specified) recombinant receptors, monoamine transporters, or ion channels for crude membrane preparation. Detailed information about our membrane preparation is well known in the art and can be obtained from publicly available protocol online. Crude membrane fractions containing the receptors were resuspended in standard binding buffer and 50 μL aliquots added to each well. The reactions were incubated at room temperature for 1.5 hours to allow for radioligand binding equilibration. Bound radioactivity was harvested by rapid filtration through a 0.3% polyethyleneimine-treated, 96-well filter mats using a 96-well Filtermate harvester. The dried filters were treated with melted scintillant and a Microbeta scintillation counter was utilized to measure the radioactivity retained on the filter."}, "[2]": {"biological_target": "T2, Beta3 (Homo sapiens, UniProt P13945)", "T2 construct": "expressed in transfected cells", "test": "Primary radioligand binding screen", "description": "as §1"}, "[3]": {"biological_target": "T3, 5-hT5A (Homo sapiens, UniProt P47898)", "T3 construct": "expressed in transfected cells", "test": "Primary radioligand binding screen", "description": "as §1"}, "[4]": {"biological_target": "Sigma 2 (Rattus norvegicus, UniProt Q5U3Y7)", "test": "Primary radioligand binding screen", "description": "as §1"}, "[5]": {"biological_target": "T4, DOR (Homo sapiens, UniProt P41143)", "T4 construct": "expressed in transfected cells", "T4 sequence (P41143 whole entry)": "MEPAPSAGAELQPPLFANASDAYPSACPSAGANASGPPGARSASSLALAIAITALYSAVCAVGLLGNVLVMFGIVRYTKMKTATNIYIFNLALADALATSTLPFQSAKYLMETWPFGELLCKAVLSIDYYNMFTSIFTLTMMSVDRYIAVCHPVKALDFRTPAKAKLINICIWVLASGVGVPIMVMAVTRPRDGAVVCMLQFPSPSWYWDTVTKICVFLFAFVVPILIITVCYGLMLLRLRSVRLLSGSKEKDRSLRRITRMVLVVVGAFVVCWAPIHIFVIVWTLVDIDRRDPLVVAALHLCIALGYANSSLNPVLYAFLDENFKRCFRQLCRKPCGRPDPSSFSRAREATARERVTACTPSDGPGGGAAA", "test": "Primary radioligand binding screen", "description": "as §1"}, "[6]": {"biological_target": "T5, H2 (Homo sapiens, UniProt P25021)", "T5 construct": "expressed in transfected cells", "test": "Primary radioligand binding screen", "description": "as §1"}, "[7]": {"biological_target": "T6, D5 (Homo sapiens, UniProt P21918)", "T6 construct": "expressed in transfected cells", "test": "Primary radioligand binding screen", "description": "as §1"}, "[8]": {"biological_target": "T7, H3 (Homo sapiens, UniProt Q9Y5N1)", "T7 construct": "expressed in transfected cells", "T7 sequence (Q9Y5N1 whole entry)": "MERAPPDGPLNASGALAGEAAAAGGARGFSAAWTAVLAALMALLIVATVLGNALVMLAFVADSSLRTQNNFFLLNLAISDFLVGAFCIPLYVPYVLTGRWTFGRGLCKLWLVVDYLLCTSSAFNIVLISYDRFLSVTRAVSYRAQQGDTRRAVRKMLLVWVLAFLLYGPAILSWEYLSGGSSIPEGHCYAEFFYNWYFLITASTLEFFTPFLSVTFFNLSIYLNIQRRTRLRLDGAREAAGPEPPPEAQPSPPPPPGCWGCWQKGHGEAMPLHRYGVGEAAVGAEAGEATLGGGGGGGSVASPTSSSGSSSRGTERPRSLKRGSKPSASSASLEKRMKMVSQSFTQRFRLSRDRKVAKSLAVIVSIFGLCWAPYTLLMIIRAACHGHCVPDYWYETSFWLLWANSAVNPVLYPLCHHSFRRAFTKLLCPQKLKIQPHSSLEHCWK", "test": "Primary radioligand binding screen", "description": "as §1"}, "[9]": {"biological_target": "T8, M5 (Homo sapiens, UniProt P08912)", "T8 construct": "expressed in transfected cells", "test": "Primary radioligand binding screen", "description": "as §1"}, "[10]": {"biological_target": "T9, 5-HT1D (Homo sapiens, UniProt P28221)", "T9 construct": "expressed in transfected cells", "test": "Primary radioligand binding screen", "description": "as §1"}, "[11]": {"biological_target": "T10, 5-HT7 (Homo sapiens, UniProt P34969)", "T10 construct": "expressed in transfected cells", "test": "Primary radioligand binding screen", "description": "as §1"}, "[12]": {"biological_target": "T11, M1 (Homo sapiens, UniProt P11229)", "T11 construct": "expressed in transfected cells", "test": "Primary radioligand binding screen", "description": "as §1"}, "[13]": {"biological_target": "T12, Alpha1B (Homo sapiens, UniProt P35368)", "T12 construct": "expressed in transfected cells", "T12 sequence (P35368 whole entry)": "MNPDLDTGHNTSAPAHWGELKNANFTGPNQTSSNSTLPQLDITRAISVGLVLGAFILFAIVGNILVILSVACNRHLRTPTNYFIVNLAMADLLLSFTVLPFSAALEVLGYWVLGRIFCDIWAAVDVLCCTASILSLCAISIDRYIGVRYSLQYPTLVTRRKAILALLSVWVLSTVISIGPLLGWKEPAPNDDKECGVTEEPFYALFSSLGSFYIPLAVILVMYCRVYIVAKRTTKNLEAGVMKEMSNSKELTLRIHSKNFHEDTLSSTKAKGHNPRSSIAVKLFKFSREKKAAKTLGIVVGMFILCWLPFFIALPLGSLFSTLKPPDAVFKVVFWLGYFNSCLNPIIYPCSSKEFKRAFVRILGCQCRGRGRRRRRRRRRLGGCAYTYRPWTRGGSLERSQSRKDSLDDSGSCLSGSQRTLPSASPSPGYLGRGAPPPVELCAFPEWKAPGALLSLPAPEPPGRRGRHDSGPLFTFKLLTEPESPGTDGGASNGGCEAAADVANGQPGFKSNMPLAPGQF", "test": "Primary radioligand binding screen", "description": "as §1"}, "[14]": {"biological_target": "T13, 5-HT2C (Homo sapiens, UniProt P28335)", "T13 construct": "expressed in transfected cells", "test": "Primary radioligand binding screen", "description": "as §1"}, "[15]": {"biological_target": "T14, Beta2 (Homo sapiens, UniProt P07550)", "T14 construct": "expressed in transfected cells", "test": "Primary radioligand binding screen", "description": "as §1"}, "[16]": {"biological_target": "T15, 5-HT6 (Homo sapiens, UniProt P50406)", "T15 construct": "expressed in transfected cells", "T15 sequence (P50406 whole entry)": "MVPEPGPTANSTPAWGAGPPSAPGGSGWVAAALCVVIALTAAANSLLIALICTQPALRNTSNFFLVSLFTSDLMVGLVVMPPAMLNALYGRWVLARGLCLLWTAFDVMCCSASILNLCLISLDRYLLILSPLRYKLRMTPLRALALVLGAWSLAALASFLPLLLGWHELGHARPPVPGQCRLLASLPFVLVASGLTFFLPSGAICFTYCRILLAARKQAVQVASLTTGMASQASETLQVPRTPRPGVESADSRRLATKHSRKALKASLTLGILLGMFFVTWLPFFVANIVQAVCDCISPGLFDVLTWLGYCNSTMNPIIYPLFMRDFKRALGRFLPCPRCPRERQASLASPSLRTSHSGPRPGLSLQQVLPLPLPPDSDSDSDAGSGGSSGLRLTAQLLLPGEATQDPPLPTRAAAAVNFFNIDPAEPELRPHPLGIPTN", "test": "Primary radioligand binding screen", "description": "as §1"}, "[17]": {"biological_target": "T16, Beta1 (Homo sapiens, UniProt P08588)", "T16 construct": "expressed in transfected cells", "test": "Primary radioligand binding screen", "description": "as §1"}, "[18]": {"biological_target": "T17, NET (Homo sapiens, UniProt P23975)", "T17 construct": "expressed in transfected cells", "T17 sequence (P23975 whole entry)": "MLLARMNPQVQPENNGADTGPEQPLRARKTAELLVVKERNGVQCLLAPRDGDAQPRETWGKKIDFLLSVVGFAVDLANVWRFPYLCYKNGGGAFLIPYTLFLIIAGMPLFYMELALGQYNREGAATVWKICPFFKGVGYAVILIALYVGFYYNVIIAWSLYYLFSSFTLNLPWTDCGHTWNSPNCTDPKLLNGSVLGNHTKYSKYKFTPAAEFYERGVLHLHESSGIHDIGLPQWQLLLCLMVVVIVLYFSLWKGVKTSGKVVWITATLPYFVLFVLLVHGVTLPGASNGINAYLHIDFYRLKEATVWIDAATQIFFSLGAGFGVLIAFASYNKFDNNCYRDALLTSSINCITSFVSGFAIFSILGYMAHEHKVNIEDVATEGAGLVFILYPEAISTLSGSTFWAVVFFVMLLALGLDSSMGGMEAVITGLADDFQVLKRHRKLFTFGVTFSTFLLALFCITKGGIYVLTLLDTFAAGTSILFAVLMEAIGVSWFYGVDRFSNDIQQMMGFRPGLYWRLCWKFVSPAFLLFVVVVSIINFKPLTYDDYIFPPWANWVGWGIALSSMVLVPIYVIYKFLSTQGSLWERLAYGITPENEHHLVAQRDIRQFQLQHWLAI", "test": "Primary radioligand binding screen", "description": "as §1"}, "[19]": {"biological_target": "T18, 5-HT1B (Homo sapiens, UniProt P28222)", "T18 construct": "expressed in transfected cells", "test": "Primary radioligand binding screen", "description": "as §1"}, "[20]": {"biological_target": "T19, Alpha2C (Homo sapiens, UniProt P18825)", "T19 construct": "expressed in transfected cells", "T19 sequence (P18825 whole entry)": "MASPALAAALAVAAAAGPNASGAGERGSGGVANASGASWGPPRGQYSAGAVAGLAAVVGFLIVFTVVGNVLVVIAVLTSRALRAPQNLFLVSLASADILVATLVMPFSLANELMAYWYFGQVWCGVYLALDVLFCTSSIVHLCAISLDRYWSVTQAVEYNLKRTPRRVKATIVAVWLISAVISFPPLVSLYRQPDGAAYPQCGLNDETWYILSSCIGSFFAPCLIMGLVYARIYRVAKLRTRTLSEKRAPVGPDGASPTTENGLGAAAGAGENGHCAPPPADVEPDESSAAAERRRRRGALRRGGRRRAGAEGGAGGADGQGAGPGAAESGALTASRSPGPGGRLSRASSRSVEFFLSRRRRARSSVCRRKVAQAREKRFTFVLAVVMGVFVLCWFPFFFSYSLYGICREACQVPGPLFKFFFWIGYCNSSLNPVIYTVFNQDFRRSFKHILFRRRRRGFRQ", "test": "Primary radioligand binding screen", "description": "as §1"}, "[21]": {"biological_target": "T20, Alpha1D (Homo sapiens, UniProt P25100)", "T20 construct": "expressed in transfected cells", "T20 sequence (P25100 whole entry)": "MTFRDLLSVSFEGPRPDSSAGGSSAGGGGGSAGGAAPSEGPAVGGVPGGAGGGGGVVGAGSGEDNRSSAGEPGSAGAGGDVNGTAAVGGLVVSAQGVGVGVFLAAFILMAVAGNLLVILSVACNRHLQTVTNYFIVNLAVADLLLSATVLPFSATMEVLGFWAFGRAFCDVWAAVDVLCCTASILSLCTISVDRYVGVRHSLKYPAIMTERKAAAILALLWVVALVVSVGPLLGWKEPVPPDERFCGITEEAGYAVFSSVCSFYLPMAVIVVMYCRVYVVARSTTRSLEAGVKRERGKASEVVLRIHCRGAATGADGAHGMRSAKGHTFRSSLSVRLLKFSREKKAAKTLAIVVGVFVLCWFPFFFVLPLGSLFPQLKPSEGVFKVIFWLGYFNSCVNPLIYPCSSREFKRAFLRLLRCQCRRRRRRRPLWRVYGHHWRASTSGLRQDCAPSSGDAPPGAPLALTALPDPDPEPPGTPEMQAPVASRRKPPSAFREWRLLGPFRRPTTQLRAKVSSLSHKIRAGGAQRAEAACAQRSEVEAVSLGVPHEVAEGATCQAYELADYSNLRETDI", "test": "Primary radioligand binding screen", "description": "as §1"}, "[22]": {"biological_target": "T21, M3 (Homo sapiens, UniProt P20309)", "T21 construct": "expressed in transfected cells", "test": "Primary radioligand binding screen", "description": "as §1"}, "[23]": {"biological_target": "T22, D3 (Homo sapiens, UniProt P35462)", "T22 construct": "expressed in transfected cells", "test": "Primary radioligand binding screen", "description": "as §1"}, "[24]": {"biological_target": "T23, M2 (Homo sapiens, UniProt P08172)", "T23 construct": "expressed in transfected cells", "test": "Primary radioligand binding screen", "description": "as §1"}, "[25]": {"biological_target": "T24, M4 (Homo sapiens, UniProt P08173)", "T24 construct": "expressed in transfected cells", "test": "Primary radioligand binding screen", "description": "as §1"}, "[26]": {"biological_target": "T25, 5-HT1A (Homo sapiens, UniProt P08908)", "T25 construct": "expressed in transfected cells", "test": "Primary radioligand binding screen", "description": "as §1"}, "[27]": {"biological_target": "T26, Alpha2B (Homo sapiens, UniProt P18089)", "T26 construct": "expressed in transfected cells", "T26 sequence (P18089 whole entry)": "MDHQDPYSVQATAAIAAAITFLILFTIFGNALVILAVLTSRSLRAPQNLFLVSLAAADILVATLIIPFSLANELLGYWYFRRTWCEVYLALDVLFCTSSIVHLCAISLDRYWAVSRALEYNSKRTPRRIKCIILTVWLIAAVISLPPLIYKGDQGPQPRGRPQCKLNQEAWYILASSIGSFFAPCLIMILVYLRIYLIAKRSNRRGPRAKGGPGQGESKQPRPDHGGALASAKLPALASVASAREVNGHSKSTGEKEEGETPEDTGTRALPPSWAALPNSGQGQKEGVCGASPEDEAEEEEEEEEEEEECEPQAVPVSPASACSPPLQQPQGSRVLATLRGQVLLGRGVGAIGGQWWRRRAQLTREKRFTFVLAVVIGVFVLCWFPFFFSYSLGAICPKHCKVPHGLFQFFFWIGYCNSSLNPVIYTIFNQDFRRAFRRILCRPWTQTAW", "test": "Primary radioligand binding screen", "description": "as §1"}, "[28]": {"biological_target": "T27, SERT (Homo sapiens, UniProt P31645)", "T27 construct": "expressed in transfected cells", "test": "Primary radioligand binding screen", "description": "as §1"}, "[29]": {"biological_target": "T28, DAT (Homo sapiens, UniProt Q01959)", "T28 construct": "expressed in transfected cells", "test": "Primary radioligand binding screen", "description": "as §1"}, "[30]": {"biological_target": "T29, 5-HT2A (Homo sapiens, UniProt P28223)", "T29 construct": "expressed in transfected cells", "test": "Primary radioligand binding screen", "description": "as §1"}, "[31]": {"biological_target": "T30, D2 (Homo sapiens, UniProt P14416)", "T30 construct": "expressed in transfected cells", "test": "Primary radioligand binding screen", "description": "as §1"}, "[32]": {"biological_target": "T31, D1 (Homo sapiens, UniProt P21728)", "T31 construct": "expressed in transfected cells", "test": "Primary radioligand binding screen", "description": "as §1"}, "[33]": {"biological_target": "T32, 5-HT3 (Homo sapiens, UniProt P46098)", "T32 construct": "expressed in transfected cells", "test": "Primary radioligand binding screen", "description": "as §1"}, "[34]": {"biological_target": "T33, D4 (Homo sapiens, UniProt P21917)", "T33 construct": "expressed in transfected cells", "test": "Primary radioligand binding screen", "description": "as §1"}, "[35]": {"biological_target": "T34, Alpha2A (Homo sapiens, UniProt P08913)", "T34 construct": "expressed in transfected cells", "test": "Primary radioligand binding screen", "description": "as §1"}, "[36]": {"biological_target": "T35, 5-HT1E (Homo sapiens, UniProt P28566)", "T35 construct": "expressed in transfected cells", "test": "Primary radioligand binding screen", "description": "as §1"}, "[37]": {"biological_target": "T36, 5-HT2B (Homo sapiens, UniProt P41595)", "T36 construct": "expressed in transfected cells", "test": "Primary radioligand binding screen", "description": "as §1"}, "[38]": {"details": "hydrobromide salt; cited from earlier work"}, "[39]": {"biological_target": "T37, H1 (Homo sapiens, UniProt P35367)", "T37 construct": "expressed in transfected cells", "T37 sequence (P35367 whole entry)": "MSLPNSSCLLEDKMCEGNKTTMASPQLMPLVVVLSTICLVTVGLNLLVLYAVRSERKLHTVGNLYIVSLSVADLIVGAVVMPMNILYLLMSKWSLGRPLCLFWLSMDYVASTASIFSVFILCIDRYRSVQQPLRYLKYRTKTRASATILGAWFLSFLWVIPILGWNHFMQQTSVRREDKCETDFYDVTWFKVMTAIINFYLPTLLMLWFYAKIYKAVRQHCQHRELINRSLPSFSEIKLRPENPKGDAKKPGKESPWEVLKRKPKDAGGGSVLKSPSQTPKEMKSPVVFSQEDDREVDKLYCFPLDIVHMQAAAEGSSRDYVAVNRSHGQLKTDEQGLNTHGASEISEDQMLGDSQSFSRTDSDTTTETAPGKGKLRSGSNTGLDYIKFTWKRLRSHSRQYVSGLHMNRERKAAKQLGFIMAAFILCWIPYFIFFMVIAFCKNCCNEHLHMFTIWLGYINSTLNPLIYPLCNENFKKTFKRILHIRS", "test": "biochemical", "type": "binding", "description": "as §1"}, "[40]": {"biological_target": "T38, KOR (Homo sapiens, UniProt P41145)", "T38 construct": "expressed in transfected cells", "test": "biochemical", "type": "binding", "description": "as §1"}, "[41]": {"biological_target": "T39, MOR (Homo sapiens, UniProt P35372)", "T39 construct": "expressed in transfected cells", "test": "biochemical", "type": "binding", "description": "as §1"}}, "note": "Structures can show the parent of a compound that is named as a salt.", "data": [{"smiles": "C[C@@]12CCCCC[C@@H](Cc3ccc(O)cc31)[C@@H]2N", "note": "[Dezocine, (−)-13β-amino-5,6,7,8,9,10,11,12-octahydro-5α-methyl-5,11-methanobenxocyclodecen-31-ol, hydrobromide]", "values": [{"measurement": "inhibition at 10 µM", "setting": "[1]", "value": 4.9, "unit": "%"}, {"measurement": "inhibition at 10 µM", "setting": "[2]", "value": -15, "unit": "%"}, {"measurement": "inhibition at 10 µM", "setting": "[3]", "value": 3.4, "unit": "%"}, {"measurement": "inhibition at 10 µM", "setting": "[4]", "value": 6.3, "unit": "%"}, {"measurement": "inhibition at 10 µM", "setting": "[5]", "value": 58.5, "unit": "%"}, {"measurement": "inhibition at 10 µM", "setting": "[6]", "value": 33.6, "unit": "%"}, {"measurement": "inhibition at 10 µM", "setting": "[7]", "value": -6.3, "unit": "%"}, {"measurement": "inhibition at 10 µM", "setting": "[8]", "value": -1.6, "unit": "%"}, {"measurement": "inhibition at 10 µM", "setting": "[9]", "value": 19.4, "unit": "%"}, {"measurement": "inhibition at 10 µM", "setting": "[10]", "value": -0.4, "unit": "%"}, {"measurement": "inhibition at 10 µM", "setting": "[11]", "value": 20.9, "unit": "%"}, {"measurement": "inhibition at 10 µM", "setting": "[12]", "value": -6.8, "unit": "%"}, {"measurement": "inhibition at 10 µM", "setting": "[13]", "value": 14.7, "unit": "%"}, {"measurement": "inhibition at 10 µM", "setting": "[14]", "value": 19.8, "unit": "%"}, {"measurement": "inhibition at 10 µM", "setting": "[15]", "value": -4.5, "unit": "%"}, {"measurement": "inhibition at 10 µM", "setting": "[16]", "value": 10.9, "unit": "%"}, {"measurement": "inhibition at 10 µM", "setting": "[17]", "value": 10, "unit": "%"}, {"measurement": "inhibition at 10 µM", "setting": "[18]", "value": 86.4, "unit": "%"}, {"measurement": "inhibition at 10 µM", "setting": "[19]", "value": -14.1, "unit": "%"}, {"measurement": "inhibition at 10 µM", "setting": "[20]", "value": -7.9, "unit": "%"}, {"measurement": "inhibition at 10 µM", "setting": "[21]", "value": 8.9, "unit": "%"}, {"measurement": "inhibition at 10 µM", "setting": "[22]", "value": -3.4, "unit": "%"}, {"measurement": "inhibition at 10 µM", "setting": "[23]", "value": -9.4, "unit": "%"}, {"measurement": "inhibition at 10 µM", "setting": "[24]", "value": 31.5, "unit": "%"}, {"measurement": "inhibition at 10 µM", "setting": "[25]", "value": 2.5, "unit": "%"}, {"measurement": "inhibition at 10 µM", "setting": "[26]", "value": 43.5, "unit": "%"}, {"measurement": "inhibition at 10 µM", "setting": "[27]", "value": 21.2, "unit": "%"}, {"measurement": "inhibition at 10 µM", "setting": "[28]", "value": 97.7, "unit": "%"}, {"measurement": "inhibition at 10 µM", "setting": "[29]", "value": 15.8, "unit": "%"}, {"measurement": "inhibition at 10 µM", "setting": "[30]", "value": -10, "unit": "%"}, {"measurement": "inhibition at 10 µM", "setting": "[31]", "value": -3.8, "unit": "%"}, {"measurement": "inhibition at 10 µM", "setting": "[32]", "value": 11.5, "unit": "%"}, {"measurement": "inhibition at 10 µM", "setting": "[33]", "value": 11.8, "unit": "%"}, {"measurement": "inhibition at 10 µM", "setting": "[34]", "value": -5.1, "unit": "%"}, {"measurement": "inhibition at 10 µM", "setting": "[35]", "value": 40.9, "unit": "%"}, {"measurement": "inhibition at 10 µM", "setting": "[36]", "value": -2.4, "unit": "%"}, {"measurement": "inhibition at 10 µM", "setting": "[37]", "value": -11.9, "unit": "%"}, {"measurement": "solubility of the salt", "setting": "[38]", "value": 20, "unit": "mg/mL"}, {"measurement": "inhibition at 10 µM", "setting": "[39]", "value": 20.7, "unit": "%"}, {"measurement": "inhibition at 10 µM", "setting": "[40]", "value": 91.3, "unit": "%"}, {"measurement": "inhibition at 10 µM", "setting": "[41]", "value": 89.6, "unit": "%"}]}]}
